In ChEMBL document CHEMBL5465560, “Selectivity Literature for EUbOPEN Chemogenomic Library” (2024) one finds % of control, dTM and % of inhibition data, which are given here for ten compounds.

Experiment [1] concerns Tyrosine-protein kinase ABL1 (Homo sapiens), P00519 [F317I]. Description: Selectivity interaction (Ambit KINOMEscan and KiNATiv profiling in Jurkat cells) EUB0000090b ABL1. It counts as cell-based. To be noted: at 1 µM.
The target of experiment [2] is Glycogen synthase kinase-3 alpha (Homo sapiens, UniProt P49840). Description: Selectivity interaction (Ambit KINOMEscan and KiNATiv profiling in Jurkat cells) EUB0000090b GSK3A. To be noted: at 1 µM. Type of experiment: cell-based.
Chain of Glycogen synthase kinase-3 alpha (P49840 2-483 limits assumed): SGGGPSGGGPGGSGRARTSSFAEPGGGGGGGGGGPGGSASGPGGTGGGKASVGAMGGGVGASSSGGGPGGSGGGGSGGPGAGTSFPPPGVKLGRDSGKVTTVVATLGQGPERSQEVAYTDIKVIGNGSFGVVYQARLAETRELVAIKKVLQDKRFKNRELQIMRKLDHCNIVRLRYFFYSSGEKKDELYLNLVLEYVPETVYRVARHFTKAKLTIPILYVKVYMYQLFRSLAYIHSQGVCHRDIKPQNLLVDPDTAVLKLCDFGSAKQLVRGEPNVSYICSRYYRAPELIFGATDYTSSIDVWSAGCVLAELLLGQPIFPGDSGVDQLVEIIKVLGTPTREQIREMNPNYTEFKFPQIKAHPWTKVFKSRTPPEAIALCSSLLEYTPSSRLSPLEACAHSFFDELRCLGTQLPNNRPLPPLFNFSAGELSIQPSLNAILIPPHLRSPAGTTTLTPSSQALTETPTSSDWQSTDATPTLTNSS
Experiment [3] has as its target Serine/threonine-protein kinase 26 (Homo sapiens, UniProt Q9P289). Description: Selectivity interaction (Kinase panel (DSF assay)) EUB0001558a STK26.
Experiment [4] has as its target Tyrosine-protein kinase Blk (Homo sapiens) (UniProt P51451). Description: Selectivity interaction (KinomeScan (DiscoverX)) EUB0000655a BLK. The settings on record: at 10 µM.
The target in experiment [5] is Calcium/calmodulin-dependent protein kinase type II subunit alpha (Homo sapiens, UniProt Q9UQM7). Description: Selectivity interaction (KinomeScan (DiscoverX)) EUB0001079a CAMK2A. To be noted: at 1 µM.
For experiment [6], the target named is Tyrosine-protein kinase JAK1 (Homo sapiens, UniProt P23458). Description: Selectivity interaction (KinomeScan (DiscoverX)) EUB0001079a JAK1. To be noted: at 1 µM.
Chain of Tyrosine-protein kinase JAK1 (P23458 whole entry): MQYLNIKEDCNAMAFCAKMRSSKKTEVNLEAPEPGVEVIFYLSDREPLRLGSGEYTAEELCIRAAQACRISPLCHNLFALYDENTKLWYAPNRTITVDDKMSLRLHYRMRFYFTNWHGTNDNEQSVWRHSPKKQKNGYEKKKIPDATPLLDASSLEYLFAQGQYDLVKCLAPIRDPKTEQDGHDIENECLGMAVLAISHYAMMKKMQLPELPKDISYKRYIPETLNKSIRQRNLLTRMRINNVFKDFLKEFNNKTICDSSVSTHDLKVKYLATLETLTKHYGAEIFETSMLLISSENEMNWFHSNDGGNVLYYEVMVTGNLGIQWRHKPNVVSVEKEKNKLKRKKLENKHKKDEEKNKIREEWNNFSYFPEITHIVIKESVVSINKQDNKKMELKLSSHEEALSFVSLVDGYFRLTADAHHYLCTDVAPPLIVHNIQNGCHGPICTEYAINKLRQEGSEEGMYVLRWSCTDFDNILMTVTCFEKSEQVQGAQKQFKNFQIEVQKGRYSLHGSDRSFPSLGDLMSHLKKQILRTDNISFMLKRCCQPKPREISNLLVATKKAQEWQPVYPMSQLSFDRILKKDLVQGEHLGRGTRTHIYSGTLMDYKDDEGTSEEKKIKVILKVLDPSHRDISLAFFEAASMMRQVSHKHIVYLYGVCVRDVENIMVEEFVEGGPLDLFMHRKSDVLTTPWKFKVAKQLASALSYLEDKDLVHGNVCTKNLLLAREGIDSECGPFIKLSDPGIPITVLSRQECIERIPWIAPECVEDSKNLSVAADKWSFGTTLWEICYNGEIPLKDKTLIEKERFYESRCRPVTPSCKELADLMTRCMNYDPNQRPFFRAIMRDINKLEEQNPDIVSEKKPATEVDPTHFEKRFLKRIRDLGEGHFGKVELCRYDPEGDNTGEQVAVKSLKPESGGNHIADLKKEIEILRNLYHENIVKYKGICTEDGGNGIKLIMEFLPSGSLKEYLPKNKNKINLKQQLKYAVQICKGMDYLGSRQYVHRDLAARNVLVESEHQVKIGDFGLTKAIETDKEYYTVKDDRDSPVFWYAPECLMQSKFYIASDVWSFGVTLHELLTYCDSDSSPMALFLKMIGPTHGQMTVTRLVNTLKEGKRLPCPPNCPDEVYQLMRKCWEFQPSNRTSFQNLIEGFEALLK
Experiment [7] deals with T1, Kinase suppressor of Ras 2 (Homo sapiens) (UniProt Q6VAB6).
T1 sequence (whole entry): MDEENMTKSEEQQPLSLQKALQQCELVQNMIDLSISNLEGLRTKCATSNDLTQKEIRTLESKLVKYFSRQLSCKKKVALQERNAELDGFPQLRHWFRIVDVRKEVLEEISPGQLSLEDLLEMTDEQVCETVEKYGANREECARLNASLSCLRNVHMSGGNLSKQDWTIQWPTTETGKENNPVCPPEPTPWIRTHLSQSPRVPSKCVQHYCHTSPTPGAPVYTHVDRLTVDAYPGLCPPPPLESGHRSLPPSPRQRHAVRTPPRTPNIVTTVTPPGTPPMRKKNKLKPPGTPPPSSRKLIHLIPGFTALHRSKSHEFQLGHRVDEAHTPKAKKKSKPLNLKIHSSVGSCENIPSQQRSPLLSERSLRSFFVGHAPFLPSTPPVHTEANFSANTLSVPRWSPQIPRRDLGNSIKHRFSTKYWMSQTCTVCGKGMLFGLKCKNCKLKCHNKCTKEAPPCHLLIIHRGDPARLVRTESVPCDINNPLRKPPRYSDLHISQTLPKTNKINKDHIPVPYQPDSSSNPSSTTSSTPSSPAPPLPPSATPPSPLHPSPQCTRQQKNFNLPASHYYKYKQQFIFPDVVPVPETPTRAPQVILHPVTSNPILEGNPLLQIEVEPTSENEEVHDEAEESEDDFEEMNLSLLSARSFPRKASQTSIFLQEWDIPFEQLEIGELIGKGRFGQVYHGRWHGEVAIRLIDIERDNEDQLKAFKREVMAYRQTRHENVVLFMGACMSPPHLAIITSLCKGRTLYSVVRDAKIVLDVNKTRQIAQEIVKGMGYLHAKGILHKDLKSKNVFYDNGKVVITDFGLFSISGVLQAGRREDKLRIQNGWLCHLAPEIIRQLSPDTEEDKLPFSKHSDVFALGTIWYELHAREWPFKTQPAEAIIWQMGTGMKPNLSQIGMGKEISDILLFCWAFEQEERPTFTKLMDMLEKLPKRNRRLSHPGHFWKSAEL
Description: Selectivity interaction (ActivX KiNativ screen (ex vivo kinase selectivity in human PBMCs)) EUB0001619a KSR2. The settings on record: PBMC, at 1 µM. Type of experiment: cell-based.

The target of experiment [8] is Serine/threonine-protein kinase mTOR (Homo sapiens, UniProt P42345). Description: Selectivity interaction (KinomeScan (DiscoverX)) EUB0001619a MTOR. To be noted: at 1 µM.
Experiment [9] concerns the target Protein-tyrosine kinase 2-beta (Homo sapiens) (UniProt Q14289). Description: Selectivity interaction (ActivX KiNativ screen (kinase selectivity in THP-1 cell lysates)) EUB0000639a PTK2B. Type of experiment: subcellular. To be noted: lysate, at 0.01 µM.
Experiment [10] concerns the target Serine/threonine-protein kinase 32C (Homo sapiens) (UniProt Q86UX6). Description: Selectivity interaction (KinomeScan (DiscoverX)) EUB0001049a STK32C. To be noted: at 1 µM.
The target in experiment [11] is Rho-associated protein kinase 1 (Homo sapiens) (UniProt Q13464). Description: Selectivity interaction (ProQinase) EUB0000171b ROCK1.
Chain of Rho-associated protein kinase 1 (Homo sapiens) (Q13464 2-1354 limits assumed): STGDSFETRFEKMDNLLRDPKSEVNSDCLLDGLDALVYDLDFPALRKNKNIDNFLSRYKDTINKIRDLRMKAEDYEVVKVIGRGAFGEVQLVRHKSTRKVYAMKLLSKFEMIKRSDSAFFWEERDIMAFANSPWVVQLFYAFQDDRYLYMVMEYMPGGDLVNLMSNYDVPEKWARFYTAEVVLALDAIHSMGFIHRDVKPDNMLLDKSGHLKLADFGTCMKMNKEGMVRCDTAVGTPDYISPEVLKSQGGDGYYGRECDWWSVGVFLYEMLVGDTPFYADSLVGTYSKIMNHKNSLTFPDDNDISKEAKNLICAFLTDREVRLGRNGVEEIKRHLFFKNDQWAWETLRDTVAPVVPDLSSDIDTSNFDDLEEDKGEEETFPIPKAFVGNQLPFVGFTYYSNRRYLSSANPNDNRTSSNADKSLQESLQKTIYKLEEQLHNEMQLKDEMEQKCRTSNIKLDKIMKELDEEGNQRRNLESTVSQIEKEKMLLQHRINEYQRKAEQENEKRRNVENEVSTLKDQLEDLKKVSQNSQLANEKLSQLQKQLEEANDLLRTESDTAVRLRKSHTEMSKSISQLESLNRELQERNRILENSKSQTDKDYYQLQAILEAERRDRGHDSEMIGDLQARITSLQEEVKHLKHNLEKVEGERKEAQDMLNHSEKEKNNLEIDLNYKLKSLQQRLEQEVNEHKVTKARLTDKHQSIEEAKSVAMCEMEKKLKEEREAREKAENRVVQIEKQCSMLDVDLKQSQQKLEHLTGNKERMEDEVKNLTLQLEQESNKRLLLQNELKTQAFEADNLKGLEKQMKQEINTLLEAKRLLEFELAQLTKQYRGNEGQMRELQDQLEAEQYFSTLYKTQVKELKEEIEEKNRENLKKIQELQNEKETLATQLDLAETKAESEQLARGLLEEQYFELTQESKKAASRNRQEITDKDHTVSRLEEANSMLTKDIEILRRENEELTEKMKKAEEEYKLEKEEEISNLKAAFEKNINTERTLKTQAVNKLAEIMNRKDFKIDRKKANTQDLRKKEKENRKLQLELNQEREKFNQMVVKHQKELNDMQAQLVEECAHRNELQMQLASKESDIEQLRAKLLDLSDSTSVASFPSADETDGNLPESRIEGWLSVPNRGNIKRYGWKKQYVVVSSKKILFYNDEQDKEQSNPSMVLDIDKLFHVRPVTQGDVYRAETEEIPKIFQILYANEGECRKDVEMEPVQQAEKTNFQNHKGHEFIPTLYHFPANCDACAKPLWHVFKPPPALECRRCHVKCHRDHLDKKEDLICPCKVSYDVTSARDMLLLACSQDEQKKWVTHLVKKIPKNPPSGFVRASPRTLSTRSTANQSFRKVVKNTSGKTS
Experiment [12] concerns the target T2, Dual specificity mitogen-activated protein kinase kinase 7 (Homo sapiens) (UniProt O14733).
T2 sequence (whole entry): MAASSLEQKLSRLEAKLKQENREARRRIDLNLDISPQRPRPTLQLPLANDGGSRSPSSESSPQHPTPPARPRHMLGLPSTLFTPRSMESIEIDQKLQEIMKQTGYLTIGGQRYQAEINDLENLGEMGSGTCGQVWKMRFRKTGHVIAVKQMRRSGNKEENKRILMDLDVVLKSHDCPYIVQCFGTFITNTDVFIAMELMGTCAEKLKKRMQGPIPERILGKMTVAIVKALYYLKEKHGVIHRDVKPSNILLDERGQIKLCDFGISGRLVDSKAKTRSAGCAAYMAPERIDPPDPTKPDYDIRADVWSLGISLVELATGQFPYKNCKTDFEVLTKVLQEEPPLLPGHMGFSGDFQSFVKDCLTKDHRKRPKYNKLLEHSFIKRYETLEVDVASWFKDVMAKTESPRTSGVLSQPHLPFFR
Description: Selectivity interaction (KinomeScan (DiscoverX)) EUB0000045b MAP2K7.

For experiment [13], the target named is Serine/threonine-protein kinase 16 (Homo sapiens, UniProt O75716). Description: Selectivity interaction (KinomeScan (DiscoverX)) EUB0000045b STK16.
Chain of Serine/threonine-protein kinase 16 (O75716 whole entry): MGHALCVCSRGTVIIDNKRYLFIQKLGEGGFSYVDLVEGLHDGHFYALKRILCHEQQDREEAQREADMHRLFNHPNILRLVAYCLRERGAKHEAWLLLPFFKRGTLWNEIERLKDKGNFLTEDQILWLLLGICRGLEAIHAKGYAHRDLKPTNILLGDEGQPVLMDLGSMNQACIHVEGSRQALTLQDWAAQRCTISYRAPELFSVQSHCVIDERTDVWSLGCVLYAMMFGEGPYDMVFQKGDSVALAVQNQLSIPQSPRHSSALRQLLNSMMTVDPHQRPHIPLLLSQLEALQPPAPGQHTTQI
The target in experiment [14] is T3, Tyrosine-protein kinase ZAP-70 (Homo sapiens) (UniProt P43403).
T3 sequence (whole entry): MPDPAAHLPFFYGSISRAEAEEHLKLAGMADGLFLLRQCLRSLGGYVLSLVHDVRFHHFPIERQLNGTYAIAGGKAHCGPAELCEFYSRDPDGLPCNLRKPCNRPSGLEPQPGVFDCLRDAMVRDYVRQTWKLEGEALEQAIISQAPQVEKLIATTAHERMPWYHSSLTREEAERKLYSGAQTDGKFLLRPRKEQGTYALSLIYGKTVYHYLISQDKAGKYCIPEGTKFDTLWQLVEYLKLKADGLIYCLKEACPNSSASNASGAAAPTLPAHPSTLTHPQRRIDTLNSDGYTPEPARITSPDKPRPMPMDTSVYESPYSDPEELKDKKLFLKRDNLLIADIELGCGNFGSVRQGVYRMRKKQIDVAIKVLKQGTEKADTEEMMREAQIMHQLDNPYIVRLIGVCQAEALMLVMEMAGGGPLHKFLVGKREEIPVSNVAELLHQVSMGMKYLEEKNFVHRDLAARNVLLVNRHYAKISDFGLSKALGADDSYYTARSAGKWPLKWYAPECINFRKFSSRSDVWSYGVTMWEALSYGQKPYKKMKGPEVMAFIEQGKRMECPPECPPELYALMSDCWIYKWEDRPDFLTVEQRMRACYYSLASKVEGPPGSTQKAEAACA
Description: Selectivity interaction (Upstate Kinase Profiler service (Millipore)) EUB0000056c ZAP70. The settings on record: at 1 µM.

Chain of Serine/threonine-protein kinase 26 (Q9P289 2-416 limits assumed): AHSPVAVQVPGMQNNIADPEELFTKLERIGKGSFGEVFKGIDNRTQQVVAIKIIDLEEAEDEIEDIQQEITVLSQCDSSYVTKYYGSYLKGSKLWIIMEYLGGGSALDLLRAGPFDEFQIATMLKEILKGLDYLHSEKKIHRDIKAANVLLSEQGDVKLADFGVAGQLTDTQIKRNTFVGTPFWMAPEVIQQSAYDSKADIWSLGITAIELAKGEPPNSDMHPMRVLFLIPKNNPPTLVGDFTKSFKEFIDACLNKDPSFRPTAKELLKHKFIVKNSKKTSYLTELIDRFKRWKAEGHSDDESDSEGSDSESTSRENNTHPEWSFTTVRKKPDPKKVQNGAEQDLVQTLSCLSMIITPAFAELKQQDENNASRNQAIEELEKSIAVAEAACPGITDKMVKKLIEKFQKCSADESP
Chain of Protein-tyrosine kinase 2-beta (Homo sapiens) (Q14289 whole entry, looked up): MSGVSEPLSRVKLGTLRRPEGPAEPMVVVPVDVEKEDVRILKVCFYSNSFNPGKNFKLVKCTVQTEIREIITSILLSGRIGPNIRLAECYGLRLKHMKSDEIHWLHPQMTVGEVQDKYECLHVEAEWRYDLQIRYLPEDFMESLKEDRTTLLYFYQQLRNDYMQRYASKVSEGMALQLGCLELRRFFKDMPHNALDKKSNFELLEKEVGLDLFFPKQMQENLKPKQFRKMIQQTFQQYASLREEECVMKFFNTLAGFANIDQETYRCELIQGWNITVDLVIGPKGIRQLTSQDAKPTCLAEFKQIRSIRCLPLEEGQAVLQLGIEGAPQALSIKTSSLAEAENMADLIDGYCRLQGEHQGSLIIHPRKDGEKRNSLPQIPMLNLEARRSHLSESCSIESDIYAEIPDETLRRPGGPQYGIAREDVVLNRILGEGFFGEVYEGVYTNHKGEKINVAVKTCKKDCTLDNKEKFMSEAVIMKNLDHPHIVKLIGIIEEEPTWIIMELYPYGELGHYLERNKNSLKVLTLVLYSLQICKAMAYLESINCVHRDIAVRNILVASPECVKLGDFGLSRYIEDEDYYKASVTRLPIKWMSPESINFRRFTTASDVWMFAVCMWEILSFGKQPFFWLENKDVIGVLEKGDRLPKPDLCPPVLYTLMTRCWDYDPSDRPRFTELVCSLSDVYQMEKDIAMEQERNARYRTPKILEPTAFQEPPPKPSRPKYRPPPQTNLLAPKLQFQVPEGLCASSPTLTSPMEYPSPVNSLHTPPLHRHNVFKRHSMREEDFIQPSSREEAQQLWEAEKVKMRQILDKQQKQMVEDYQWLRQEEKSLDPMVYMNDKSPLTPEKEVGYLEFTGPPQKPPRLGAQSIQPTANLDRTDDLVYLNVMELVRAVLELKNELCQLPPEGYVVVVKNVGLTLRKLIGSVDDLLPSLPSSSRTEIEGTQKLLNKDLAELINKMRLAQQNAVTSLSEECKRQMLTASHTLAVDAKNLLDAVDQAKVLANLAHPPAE

As to `CN(C)C/C=C/C(=O)Nc1ccc(C(=O)N2CCCC(Nc3ncc(Cl)c(-c4c[nH]c5ccccc45)n3)C2)cc1` (configuration not stated), the % of control turned out to be 100% in [1] and 5.7% in experiment [2].
In turn, `CC(C)(O)[C@H](F)CN1Cc2cc(NC(=O)c3cnn4cccnc34)c(N3CCOCC3)cc2C1=O` registered a dTM in experiment [3] of 0.4 K.
For `CN(C)CCOc1ccc(-c2nc(-c3ccncc3)c(-c3ccc4c(c3)CC/C4=N\O)[nH]2)cc1`, the % of control in experiment [4] was 59%.
On to `Nc1cnc(N2CCc3cc(S(=O)(=O)Nc4c(F)cc(Cl)cc4F)cc(N4CCCC4=O)c32)nc1` [TP-020n], for which the % of control was found to be 92% in experiment [5] and 93% in experiment [6].
Take `N#Cc1cccc(-c2c[nH]c3ncnc(N4CCOCC4)c23)c1`: in [7], the % of inhibition was 12%. Besides, the % of control in experiment [8] is 58%.
Turning to `CC[C@@H]1[C@H](F)C(=O)N[C@@H]1COc1nccc2cc(C(N)=O)c(OC)cc12` [ZIMLOVISERTIB], the % of inhibition in experiment [9] is -0.9%.
Regarding `COc1cc(Nc2nc(C)cc(-c3cnn4nc(OC)ccc34)n2)cc(C(F)(F)F)c1`, in experiment [10], the % of control was found to be 87%.
On to `C=CC(=O)Nc1cccc(C(=O)Nc2ccc(Nc3cc(-c4[nH]c(SC)nc4C)ccn3)cc2)c1`, for which the values for the % of control in experiment [11] (at 1 µM) and in experiment [11] (at 5 µM) were 104% and 80%, respectively.
`C=CC(=O)Nc1cc(-n2c(=O)ccc3cnc4ccc(-c5ccc(NS(C)(=O)=O)cc5)cc4c32)ccc1C`: the % of control in experiment [12] (at 1 µM) is 49%; in [12] (at 10 µM), 6.1%; in experiment [13] (at 1 µM), 98%; in [13] (at 10 µM), 28%.
Consider `Cc1ccc(-c2ccc3c(ccc4sc5c(c43)NC[C@@H](C)NC5=O)n2)cn1`, for which the % of inhibition in experiment [14] is -8%.
